What all share (assay type): cell-based
In assay [1] the target is T1, SMCT1 (Homo sapiens, UniProt Q8N695).
T1 sequence (Q8N695 1-610): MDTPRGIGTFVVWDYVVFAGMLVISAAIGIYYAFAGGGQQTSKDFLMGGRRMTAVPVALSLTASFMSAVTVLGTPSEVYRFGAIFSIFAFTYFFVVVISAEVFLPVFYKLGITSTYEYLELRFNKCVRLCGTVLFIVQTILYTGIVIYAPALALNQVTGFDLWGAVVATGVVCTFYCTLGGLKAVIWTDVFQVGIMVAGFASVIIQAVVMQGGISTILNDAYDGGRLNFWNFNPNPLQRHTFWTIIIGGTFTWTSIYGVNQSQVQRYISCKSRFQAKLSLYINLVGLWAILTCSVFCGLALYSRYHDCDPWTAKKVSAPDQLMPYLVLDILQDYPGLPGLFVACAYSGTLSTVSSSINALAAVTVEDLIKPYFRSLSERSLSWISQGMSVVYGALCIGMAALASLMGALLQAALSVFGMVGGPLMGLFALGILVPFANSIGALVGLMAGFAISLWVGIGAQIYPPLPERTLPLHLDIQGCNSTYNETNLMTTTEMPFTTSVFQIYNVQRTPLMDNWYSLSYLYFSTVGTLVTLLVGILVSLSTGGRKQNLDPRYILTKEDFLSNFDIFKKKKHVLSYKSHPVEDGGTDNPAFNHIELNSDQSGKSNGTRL
Briefly: [14C]-nicotinate uptake by SMCT1-expressing Xenopus oocytes. Conditions: for IC50: data not shown, read-out: IC50, SMCT1-mediated [14C]-nicotinate uptake. As to the method: (§1) For uptake experiments, oocytes were washed four times with ND96 medium (pH 7.4) without pyruvate and gentamycin.
(§2) Chloride ion‐dependence was also assessed; in 0 Cl^− bath, NaCl was replaced by Na‐gluconate (Na‐Gluc), KCl by K‐gluconate (K‐Gluc), MgCl2 by Mg‐gluconate, and CaCl2 by Ca‐gluconate. […] Data are mean ± S.E. with n = 12–15.

The target in assay [2] is T2, SMCT2 (Homo sapiens, UniProt Q1EHB4).
T2 sequence (Q1EHB4 1-618): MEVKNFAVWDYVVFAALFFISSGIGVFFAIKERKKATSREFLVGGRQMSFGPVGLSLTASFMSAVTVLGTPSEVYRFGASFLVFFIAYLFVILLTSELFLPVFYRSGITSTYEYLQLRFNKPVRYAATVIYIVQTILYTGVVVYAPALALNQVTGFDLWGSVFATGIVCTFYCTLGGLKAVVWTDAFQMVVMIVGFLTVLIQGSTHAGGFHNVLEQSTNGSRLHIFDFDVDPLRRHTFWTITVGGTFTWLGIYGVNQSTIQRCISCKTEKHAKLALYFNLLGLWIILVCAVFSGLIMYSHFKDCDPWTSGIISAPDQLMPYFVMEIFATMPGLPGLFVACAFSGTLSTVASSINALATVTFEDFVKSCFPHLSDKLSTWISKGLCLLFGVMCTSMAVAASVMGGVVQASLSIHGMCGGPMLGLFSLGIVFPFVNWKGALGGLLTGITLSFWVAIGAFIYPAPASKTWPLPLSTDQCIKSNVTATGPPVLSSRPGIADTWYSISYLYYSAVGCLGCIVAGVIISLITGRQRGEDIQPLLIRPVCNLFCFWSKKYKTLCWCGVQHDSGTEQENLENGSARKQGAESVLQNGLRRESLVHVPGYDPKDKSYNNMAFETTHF
Briefly: [14C]-nicotinate uptake by SMCT2-expressing Xenopus oocytes. Conditions: for IC50: data not shown, read-out: IC50, SMCT2-mediated [14C]-nicotinate uptake. As to the method:
as §1, §2

Assay [3] addresses T3, OAT4 (Homo sapiens, UniProt Q9NSA0).
T3 sequence (Q9NSA0 1-550): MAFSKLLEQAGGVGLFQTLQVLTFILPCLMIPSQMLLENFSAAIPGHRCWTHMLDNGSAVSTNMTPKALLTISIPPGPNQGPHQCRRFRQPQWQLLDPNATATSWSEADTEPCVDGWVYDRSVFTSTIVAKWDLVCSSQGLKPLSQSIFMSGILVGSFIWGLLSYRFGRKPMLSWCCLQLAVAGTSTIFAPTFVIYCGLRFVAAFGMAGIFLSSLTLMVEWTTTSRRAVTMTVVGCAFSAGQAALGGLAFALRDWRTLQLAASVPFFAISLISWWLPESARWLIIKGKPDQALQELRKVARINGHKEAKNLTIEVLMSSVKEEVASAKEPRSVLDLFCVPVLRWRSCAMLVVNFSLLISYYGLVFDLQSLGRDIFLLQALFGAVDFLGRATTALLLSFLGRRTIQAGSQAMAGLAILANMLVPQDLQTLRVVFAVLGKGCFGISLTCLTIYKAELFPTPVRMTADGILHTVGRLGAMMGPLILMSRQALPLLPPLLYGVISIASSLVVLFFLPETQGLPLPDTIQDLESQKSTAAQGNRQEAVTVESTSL
Briefly: [14C]-urate uptake by OAT4-expressing Xenopus oocytes. Conditions: for Inhibition of OAT4-mediated urate uptake: drug 100 μmol/L. On the procedure:
as §1
(A) The uptake of [^14C]‐urate by OAT4‐expressing oocytes was performed in ND96 medium (pH 7.4) at ~25°C for 1 h. Na^+‐dependence was examined by replacing extracellular NaCl by KCl. […] (B) The inhibition of [^14C]‐urate uptake by OAT4 was examined in the presence of extracellular organic anions (for cis‐inhibition) or uricosuric drugs at the indicated concentrations. […] Data are mean ± S.E. with n = 12–15.

The target of assay [4] is T4, URAT1 (Homo sapiens, UniProt Q96S37).
T4 sequence (Q96S37 1-553): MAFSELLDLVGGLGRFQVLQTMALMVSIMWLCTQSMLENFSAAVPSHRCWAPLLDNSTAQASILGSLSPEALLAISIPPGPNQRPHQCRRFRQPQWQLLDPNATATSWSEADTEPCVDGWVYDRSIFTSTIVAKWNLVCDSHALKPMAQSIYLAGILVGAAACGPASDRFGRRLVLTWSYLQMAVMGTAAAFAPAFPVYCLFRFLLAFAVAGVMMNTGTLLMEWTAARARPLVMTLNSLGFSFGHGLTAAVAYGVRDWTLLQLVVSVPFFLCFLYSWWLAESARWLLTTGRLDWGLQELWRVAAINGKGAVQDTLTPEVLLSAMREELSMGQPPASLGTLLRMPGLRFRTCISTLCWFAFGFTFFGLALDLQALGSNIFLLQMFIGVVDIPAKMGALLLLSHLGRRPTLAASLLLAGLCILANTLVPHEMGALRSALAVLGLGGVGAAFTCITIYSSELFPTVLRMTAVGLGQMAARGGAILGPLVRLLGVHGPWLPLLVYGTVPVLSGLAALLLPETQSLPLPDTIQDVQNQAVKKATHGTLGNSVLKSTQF
Briefly: [14C]-urate uptake by URAT1-expressing Xenopus oocytes. Conditions: for IC50: 40 μmol/L urate.
Description: as §1

Assay [5] deals with OAT10 (Homo sapiens, UniProt Q9Y226). Briefly: [14C]-nicotinate uptake by OAT10-expressing Xenopus oocytes. Conditions: for Inhibition of OAT10 [14C]-nicotinate uptake: drug 100 μmol/L. On the procedure:
as §1, §2

The mark [6] stands for this setting: PZA-preloaded oocytes, read-out: IC50, OAT10-mediated [14C]-nicotinate/PZA exchange.

Several values for one entry are separate records, joined by “and”; a condition that tells them apart may be missing. Identical values can stand only once. Like-named read-outs stand apart in the source and are kept apart here.

In general, inhibition refers to the drop in the measured response relative to a control, in per cent. As usually defined, the Ki is the dissociation constant of the complex between target and ligand, obtained from inhibition or displacement.

Sequence of OAT10 (Q9Y226 whole entry): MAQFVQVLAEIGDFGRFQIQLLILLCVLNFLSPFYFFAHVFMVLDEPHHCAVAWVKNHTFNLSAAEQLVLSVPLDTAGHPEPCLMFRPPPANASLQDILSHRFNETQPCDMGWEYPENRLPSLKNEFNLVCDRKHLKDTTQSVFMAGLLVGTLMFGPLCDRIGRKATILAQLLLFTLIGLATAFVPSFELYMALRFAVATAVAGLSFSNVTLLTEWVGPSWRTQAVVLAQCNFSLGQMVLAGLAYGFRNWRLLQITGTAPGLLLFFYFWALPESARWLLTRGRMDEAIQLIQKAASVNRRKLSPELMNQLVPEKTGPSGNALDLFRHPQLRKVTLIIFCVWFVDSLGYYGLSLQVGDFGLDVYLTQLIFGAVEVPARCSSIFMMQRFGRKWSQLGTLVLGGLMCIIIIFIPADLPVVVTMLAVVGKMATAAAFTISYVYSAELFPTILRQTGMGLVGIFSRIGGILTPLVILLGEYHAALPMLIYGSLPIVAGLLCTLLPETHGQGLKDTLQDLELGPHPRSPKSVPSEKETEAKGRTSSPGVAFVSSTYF

Regarding `CCc1oc2ccccc2c1C(=O)c1cc(Br)c(O)c(Br)c1` [benzbromarone], the IC50 in assay [1] was approximately 49.6 µM. In addition, in assay [2], the IC50 is approximately 61.3 µM. Further, the “Inhibition of OAT4-mediated urate uptake” value in assay [3] was “very efficiently inhibited”. Also, in assay [4], the “Inhibition of URAT1-mediated [14C]-urate/PZA or /nicotinate exchange” value is on record as “efficiently inhibited”; the “Reversibility of URAT1 inhibition” value was “not reversible”; the “URAT1 urate transport inhibition after washing and removal of inhibitor” value is on record as “substantially inhibited”. Besides, the IC50 in assay [5] (setting [6]) is approximately 22.8 µM. Besides, in assay [5], the “Inhibition of OAT10 [14C]-nicotinate uptake” value is “inhibited”.
`CCCN(CCC)S(=O)(=O)c1ccc(C(=O)O)cc1` [probenecid]: the “Inhibition of SMCT1 nicotinate uptake” value in assay [1] (drug 1.0 mmol/L) is “significantly inhibited”. In addition, the “Inhibition of SMCT2 nicotinate uptake” value in assay [2] (drug 1.0 mmol/L) is “remained almost unaffected”. Besides, the inhibition at 1000 µM in assay [3] (read-out: Inhibition of OAT4-mediated urate uptake) stood at 80%. In assay [4], the “Inhibition of URAT1-mediated [14C]-urate/PZA or /nicotinate exchange” value is “efficiently inhibited” and the “Reversibility of URAT1 inhibition” value is listed as “not reversible”.
For the compound `COc1ccc(C=CC(=O)Nc2ccccc2C(=O)O)cc1OC` [tranilast, N‐(3,4‐dimethoxycinnamoyl) anthranilic acid], the IC50 is ~1100 µM and > 185 µM in assay [1]; ~1000 µM and > 185 µM in assay [2]; approximately 22 µM in assay [3] (data not shown); 21 µM and ~21 µM in assay [4] (IC50, URAT1-mediated [14C]-urate/PZA or [14C]-urate/nicotinate exchange, oocytes preloaded with nicotinate (Fig. 1E), 1 h); approximately 20 µM in assay [4] (uptake in the absence of PZA or nicotinate preloading, data not shown, read-out: IC50, basal URAT1-mediated [14C]-urate uptake); approximately 43.1 µM in assay [5] (setting [6]). In assay [5] (without preloading, data not shown, read-out: IC50, OAT10-mediated [14C]-nicotinate uptake), the IC50 was approximately 42 µM. The “Inhibition of OAT4-mediated urate uptake” value in assay [3] is listed as “very efficiently inhibited”. Also, in assay [4], the “URAT1 urate transport inhibition after washing and removal of inhibitor” value is “almost no inhibition”. Also, in assay [4], the “Vmax of URAT1-mediated urate uptake” value was 120.1 pmoles/oocyte/h and 63.5 pmoles/oocyte/h. Besides, the “mode of inhibition of URAT1-mediated urate transport” value in assay [4] was “noncompetitive inhibition (mixed)”. In assay [4] (Eadie-Hofstee analysis, read-out: inhibition constant (Ki) for URAT1-mediated urate uptake), the Ki was found to be 21.3 ± 2.2 µM. Also, in assay [5], the “Inhibition of OAT10 [14C]-nicotinate uptake” value is recorded as “inhibited”.

Source of the values: paper PMC5368959, “Uricosuric targets of tranilast” (Pharmacology Research & Perspectives, 2017).
